Laboratory results published in patent US11130960B2, “Methods for conferring or enhancing herbicide resistance on plants and/or alga with protoporphyrinogen oxidase variants” (FARM HANNONG CO., LTD., priority 2014, dated 2021).

Key:
Mutant AtPPO1 = biological target: T1, Mutant AtPPO1 (Arabidopsis thaliana, UniProt P55826, S305L/Y426M); test: Growth of transformed BT3(ΔPPO) E. coli in LB liquid medium (OD600); format: cell-based; details: 37° C., OD600 over culture time
T1 construct: expressed in transfected cells; host or cells: E. coli BT3(ΔPPO), pACBB vector
Procedure: (§1) In Example 3, herbicide resistance of respective BT3(ΔPPO) strains transformed with the wild-type AtPPO1, mutant AtPPO1, CyPPO2, CyPPO4 or CyPPO8 gene was investigated on agar media containing different herbicides, and in this Example, herbicide resistance of the strains was investigated in LB liquid media containing different herbicides.
(§2) HV-50 autoclave from Hirayama, HS2100A electronic scale from Hansung Instrument, CB-30V clean bench from Jeio Tech, JSI-200CL incubator from JSR, MQ-200 photometer from Apogee, and 1210 type UV-visible spectrophotometer from Thermo Fisher Scientific were used. The autoclave was used under conditions of 121° C. and 15 minutes, and the incubator was used at 37° C. with lighting of 160˜200 μmol m^−2s^−1 for a culture time of 13.5 hours. The UV-visible spectrophotometer was used at 600 nm.
(§3) Tiafenacil (M.W. 511.87 g/mol), Saflufenacil (M.W. 500.85 g/mol), and Fomesafen (M.W. 438.76 g/mol) used in the experiment were purchased from Dongbu Farm Hannong Co., Ltd, Sigma, and Sigma, respectively. These drugs were prepared at 200 mM concentration in 100% acetone, and stored at −20° C., respectively. Luria-Bertani(LB) medium (10 g/L of Bacto-Tryptone, 5 g/L of Yeast extract, 10 g/L of sodium chloride) and an antibiotic Chloramphenicol (Duchefa) were used.
(§4) For seed culture of E. coli transformed with respective genes, single colonies thereof were cultured in 3 ml of LB broth containing chloramphenicol for 12 hours, and they were diluted with LB broth to absorbance (OD600) of 1.5. Next, chloramphenicol and 500 μl of the seed culture of the transformed E. coli were added to 250 ml of LB liquid medium, and 50 ml of the culture was added to each 250 ml-flask. Each flask was treated with varying concentrations (0, 10 μM, 50 μM, 100 μM) of herbicide stocks (Tiafenacil, Saflufenacil, Fomesafen), and then incubated at 37° C. and 200 rpm. Absorbance (OD600) was measured using a spectrophotometer every 1.5 hours. The experiment was repeated three times, and mean values thereof were given in a graph. Error bars represent standard error of three repeats.

wild-type AtPPO1 = biological target: T2, wild-type AtPPO1 (Arabidopsis thaliana, UniProt P55826); test: as above; format: cell-based; details: 37° C., OD600 over culture time
T2 construct: expressed in transfected cells; host or cells: E. coli BT3(ΔPPO), pACBB vector
T2 sequence (P55826 35-537): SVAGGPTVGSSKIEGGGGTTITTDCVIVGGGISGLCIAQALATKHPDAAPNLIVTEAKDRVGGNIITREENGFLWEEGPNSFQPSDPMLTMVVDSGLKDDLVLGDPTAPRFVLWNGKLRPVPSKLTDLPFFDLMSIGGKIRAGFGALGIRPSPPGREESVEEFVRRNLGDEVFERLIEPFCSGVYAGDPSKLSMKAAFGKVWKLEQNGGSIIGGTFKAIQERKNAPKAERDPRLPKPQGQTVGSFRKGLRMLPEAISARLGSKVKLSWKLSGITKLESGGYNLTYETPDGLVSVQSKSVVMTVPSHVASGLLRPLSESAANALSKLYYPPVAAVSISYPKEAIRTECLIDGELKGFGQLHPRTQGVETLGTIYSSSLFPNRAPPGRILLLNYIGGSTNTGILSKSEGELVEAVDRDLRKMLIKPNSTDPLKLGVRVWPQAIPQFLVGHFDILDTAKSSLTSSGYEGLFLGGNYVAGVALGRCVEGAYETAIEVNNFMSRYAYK
Procedure: as §1, §2, §3, §4

CyPPO2 = test: as above; format: cell-based, Oscillatoria nigro-viridis PCC 7112; details: 37° C., OD600 over culture time
Procedure: as §1, §2, §3, §4

CyPPO4 = test: as above; format: cell-based, Lyngbya sp. PCC 8106; details: 37° C., OD600 over culture time
Procedure: as §1, §2, §3, §4

wild-type Col-0 plants = test: Herbicide spray test on Arabidopsis thaliana plants; format: in vivo; details: for outcome of plants at 7 days after spraying: 2-3 ml of 0.5 μM Tiafenacil, 1 μM Saflufenacil, or 3 μM Fomesafen per plant grown about 4 weeks
Procedure: To examine resistance of the transplanted T1 plants against PPO-based herbicides, the plants were grown for about 3-4 weeks, and then treated with herbicides prior to flower stalk elongation. […] Therefore, 1 μM tiafenacil was evenly applied at an amount proper for the number of plant individuals. After 7 days, resistance of the transformants against PPO-based herbicides was examined.
(§5) To examine whether herbicide resistance traits are maintained in the next generations of plants, respective T2 generation plants of Arabidopsis thaliana which were transformed with CyPPO2, CyPPO4 and CyPPO8 genes were subjected to an herbicide resistance test. 2-3 ml of 0.5 μM Tiafenacil, 1 μM Saflufenacil, or 3 μM Fomesafen was sprayed onto each Arabidopsis thaliana plant grown for about 4 weeks.

[1] = system: mutant AtPPO1 transformant; test: Herbicide spray test on Arabidopsis thaliana T2 plants; format: in vivo; details: 2-3 ml of 0.5 μM Tiafenacil, 1 μM Saflufenacil, or 3 μM Fomesafen per plant
CyPPO2 transformant = test: as above; format: in vivo; details: 2-3 ml of 0.5 μM Tiafenacil, 1 μM Saflufenacil, or 3 μM Fomesafen per plant
Procedure: as §5

CyPPO4 transformant = test: as above; format: in vivo; details: 2-3 ml of 0.5 μM Tiafenacil, 1 μM Saflufenacil, or 3 μM Fomesafen per plant
Procedure: as §5

CyPPO8 transformant = test: as above; format: in vivo; details: 2-3 ml of 0.5 μM Tiafenacil, 1 μM Saflufenacil, or 3 μM Fomesafen per plant
Procedure: as §5

T1 sequence (P55826 35-537 S305L/Y426M): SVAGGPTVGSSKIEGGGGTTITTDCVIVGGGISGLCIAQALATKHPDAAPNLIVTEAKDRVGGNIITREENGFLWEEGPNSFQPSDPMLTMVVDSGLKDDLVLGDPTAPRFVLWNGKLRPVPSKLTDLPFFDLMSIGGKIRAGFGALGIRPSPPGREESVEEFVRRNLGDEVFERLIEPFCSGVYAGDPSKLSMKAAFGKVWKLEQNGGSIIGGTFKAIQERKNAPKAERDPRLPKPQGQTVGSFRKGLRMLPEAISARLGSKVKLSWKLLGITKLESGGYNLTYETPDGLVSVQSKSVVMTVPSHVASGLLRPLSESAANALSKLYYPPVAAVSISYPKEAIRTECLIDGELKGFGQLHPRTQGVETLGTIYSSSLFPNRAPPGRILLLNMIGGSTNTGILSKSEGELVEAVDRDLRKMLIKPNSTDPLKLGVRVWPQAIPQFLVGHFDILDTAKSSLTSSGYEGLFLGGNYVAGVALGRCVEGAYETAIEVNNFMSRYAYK

SMILES	concentration by which the strain normally grew (Mutant AtPPO1) [µM]	concentration at which growth inhibition began (wild-type AtPPO1) [µM]	concentration by which the strain normally grew (CyPPO2) [µM]	concentration by which the strain normally grew (CyPPO4) [µM]	outcome of plants at 7 days after spraying (wild-type Col-0 plants)	outcome of plants at 7 days after spraying [1]	outcome of plants at 7 days after spraying (CyPPO2 transformant)	outcome of plants at 7 days after spraying (CyPPO4 transformant)	outcome of plants at 7 days after spraying (CyPPO8 transformant)	concentration at which the strain hardly grew (wild-type AtPPO1) [µM]	concentration at which growth inhibition was observed (Mutant AtPPO1) [µM]	concentration at which the strain grew (Mutant AtPPO1) [µM]	outcome of plants after herbicide treatment (wild-type Col-0 plants; 2-3 ml of 1 μM tiafenacil (+0.05% Silwet L-77) per plant)
CS(=O)(=O)NC(=O)c1cc(Oc2ccc(C(F)(F)F)cc2Cl)ccc1[N+](=O)[O-] [Fomesafen]	≤ 100	50	≤ 100	≤ 100	killed	continued to grow without damage	continued to grow without damage	continued to grow without damage	continued to grow without damage	–	–	–	–
CC(C)N(C)S(=O)(=O)NC(=O)c1cc(-n2c(=O)cc(C(F)(F)F)n(C)c2=O)c(F)cc1Cl [Saflufenacil]	≤ 100	–	≤ 100	≤ 100	killed	continued to grow without damage	continued to grow without damage	continued to grow without damage	continued to grow without damage	≥ 10	–	–	–
COC(=O)CCNC(=O)C(C)Sc1cc(-n2c(=O)cc(C(F)(F)F)n(C)c2=O)c(F)cc1Cl (centres unmarked) [Tiafenacil]	–	–	≤ 100	≤ 100	killed	continued to grow without damage	continued to grow without damage	continued to grow without damage	continued to grow without damage	≥ 10	≥ 50	10	killed
